# Assay results as given in publication PMC10762068, “Selective blockade of Cav1.2 (α1C) versus Cav1.3 (α1D) L-type calcium channels by the black mamba toxin calciseptine” (Nature Communications, 2024).
# Entries after “also recorded” stand apart in the source; their conditions may differ. Where two headings read alike, the source gives them in different places. Positions of bridges follow the written chain, without caps; N, C: chain ends. No end group written: not given here.
# Tests used:
# [1] = target: T1, Cav1.2 (Homo sapiens, UniProt Q13936); test: cell-based; format: cell-based; settings: for L-type Ca2+ current density: mean ± SEM, n=11
# T1 construct: expressed in transfected cells; host or cells: HEK-293T
# T1 sequence (Q13936 whole entry): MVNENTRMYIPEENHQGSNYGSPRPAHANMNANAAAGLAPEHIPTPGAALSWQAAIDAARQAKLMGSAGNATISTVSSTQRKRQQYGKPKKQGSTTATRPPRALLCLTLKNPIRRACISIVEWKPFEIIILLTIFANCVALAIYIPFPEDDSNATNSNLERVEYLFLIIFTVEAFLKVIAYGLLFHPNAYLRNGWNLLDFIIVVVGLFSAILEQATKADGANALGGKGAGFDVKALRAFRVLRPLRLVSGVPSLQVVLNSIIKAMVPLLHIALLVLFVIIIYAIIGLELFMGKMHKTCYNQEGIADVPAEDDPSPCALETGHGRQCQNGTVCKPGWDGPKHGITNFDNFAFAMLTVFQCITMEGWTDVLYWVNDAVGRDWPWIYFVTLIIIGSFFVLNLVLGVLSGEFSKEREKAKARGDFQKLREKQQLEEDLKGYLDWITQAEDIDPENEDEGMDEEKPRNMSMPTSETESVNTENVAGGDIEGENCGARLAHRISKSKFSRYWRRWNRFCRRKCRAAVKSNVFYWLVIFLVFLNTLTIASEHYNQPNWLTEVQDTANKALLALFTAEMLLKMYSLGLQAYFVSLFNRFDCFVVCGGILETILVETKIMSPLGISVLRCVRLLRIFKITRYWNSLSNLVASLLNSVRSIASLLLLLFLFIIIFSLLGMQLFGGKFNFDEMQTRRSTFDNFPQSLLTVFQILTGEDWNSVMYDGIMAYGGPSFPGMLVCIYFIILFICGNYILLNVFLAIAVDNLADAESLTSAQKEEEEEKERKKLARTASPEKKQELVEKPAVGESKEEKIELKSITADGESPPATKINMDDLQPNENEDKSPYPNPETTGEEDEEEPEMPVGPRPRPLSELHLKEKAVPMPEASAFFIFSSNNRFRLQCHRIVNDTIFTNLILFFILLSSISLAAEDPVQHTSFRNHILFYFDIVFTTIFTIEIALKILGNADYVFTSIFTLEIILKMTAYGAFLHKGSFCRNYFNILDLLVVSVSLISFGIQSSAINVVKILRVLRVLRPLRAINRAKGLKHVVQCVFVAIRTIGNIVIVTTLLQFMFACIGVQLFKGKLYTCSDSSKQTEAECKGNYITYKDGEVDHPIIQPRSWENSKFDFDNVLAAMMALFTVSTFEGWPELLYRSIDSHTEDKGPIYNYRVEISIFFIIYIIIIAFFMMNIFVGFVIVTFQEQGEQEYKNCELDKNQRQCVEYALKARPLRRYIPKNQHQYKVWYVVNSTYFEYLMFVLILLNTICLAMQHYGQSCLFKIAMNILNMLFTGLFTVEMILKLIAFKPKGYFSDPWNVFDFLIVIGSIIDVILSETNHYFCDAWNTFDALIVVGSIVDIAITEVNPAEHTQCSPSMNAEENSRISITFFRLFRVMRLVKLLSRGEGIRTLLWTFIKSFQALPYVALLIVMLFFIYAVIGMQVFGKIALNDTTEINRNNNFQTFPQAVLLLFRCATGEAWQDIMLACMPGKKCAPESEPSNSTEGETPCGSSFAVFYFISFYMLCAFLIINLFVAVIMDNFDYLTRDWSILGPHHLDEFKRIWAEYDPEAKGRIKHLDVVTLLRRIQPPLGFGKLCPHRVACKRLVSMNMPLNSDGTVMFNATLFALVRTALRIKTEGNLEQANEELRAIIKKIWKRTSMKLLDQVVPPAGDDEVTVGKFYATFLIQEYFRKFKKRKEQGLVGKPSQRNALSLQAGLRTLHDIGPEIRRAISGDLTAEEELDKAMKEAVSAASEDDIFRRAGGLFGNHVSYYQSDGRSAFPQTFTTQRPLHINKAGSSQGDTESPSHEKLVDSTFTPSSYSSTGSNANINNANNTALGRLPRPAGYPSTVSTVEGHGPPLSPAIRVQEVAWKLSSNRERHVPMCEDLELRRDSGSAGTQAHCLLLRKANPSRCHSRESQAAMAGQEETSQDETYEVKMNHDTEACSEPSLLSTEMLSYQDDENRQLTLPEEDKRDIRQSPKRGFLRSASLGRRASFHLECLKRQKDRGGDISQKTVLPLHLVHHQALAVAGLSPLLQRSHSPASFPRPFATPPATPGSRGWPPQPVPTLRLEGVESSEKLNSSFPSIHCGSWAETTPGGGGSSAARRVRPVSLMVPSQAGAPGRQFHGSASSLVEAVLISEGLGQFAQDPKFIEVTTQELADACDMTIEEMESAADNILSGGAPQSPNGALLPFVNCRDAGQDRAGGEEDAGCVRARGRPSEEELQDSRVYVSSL
# T1 sequence (Q08289 whole entry partner): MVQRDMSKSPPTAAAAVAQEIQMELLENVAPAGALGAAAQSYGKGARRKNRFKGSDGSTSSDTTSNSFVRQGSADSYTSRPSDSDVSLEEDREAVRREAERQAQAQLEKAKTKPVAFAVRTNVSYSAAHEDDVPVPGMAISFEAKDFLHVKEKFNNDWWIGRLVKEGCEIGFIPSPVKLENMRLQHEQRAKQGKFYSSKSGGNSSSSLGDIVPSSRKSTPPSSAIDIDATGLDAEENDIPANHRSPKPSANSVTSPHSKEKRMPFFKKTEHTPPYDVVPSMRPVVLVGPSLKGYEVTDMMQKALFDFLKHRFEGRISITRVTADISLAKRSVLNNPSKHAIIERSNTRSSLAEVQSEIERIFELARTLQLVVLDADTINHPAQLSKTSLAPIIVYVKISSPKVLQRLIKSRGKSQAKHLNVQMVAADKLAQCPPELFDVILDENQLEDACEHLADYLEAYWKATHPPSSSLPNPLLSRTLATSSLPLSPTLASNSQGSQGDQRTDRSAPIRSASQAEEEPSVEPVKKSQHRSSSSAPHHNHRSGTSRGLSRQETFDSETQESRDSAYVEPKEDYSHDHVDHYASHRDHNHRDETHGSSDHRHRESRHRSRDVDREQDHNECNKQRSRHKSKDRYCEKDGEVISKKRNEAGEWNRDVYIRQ
# T1 sequence (P54289 25-956 partner limits assumed): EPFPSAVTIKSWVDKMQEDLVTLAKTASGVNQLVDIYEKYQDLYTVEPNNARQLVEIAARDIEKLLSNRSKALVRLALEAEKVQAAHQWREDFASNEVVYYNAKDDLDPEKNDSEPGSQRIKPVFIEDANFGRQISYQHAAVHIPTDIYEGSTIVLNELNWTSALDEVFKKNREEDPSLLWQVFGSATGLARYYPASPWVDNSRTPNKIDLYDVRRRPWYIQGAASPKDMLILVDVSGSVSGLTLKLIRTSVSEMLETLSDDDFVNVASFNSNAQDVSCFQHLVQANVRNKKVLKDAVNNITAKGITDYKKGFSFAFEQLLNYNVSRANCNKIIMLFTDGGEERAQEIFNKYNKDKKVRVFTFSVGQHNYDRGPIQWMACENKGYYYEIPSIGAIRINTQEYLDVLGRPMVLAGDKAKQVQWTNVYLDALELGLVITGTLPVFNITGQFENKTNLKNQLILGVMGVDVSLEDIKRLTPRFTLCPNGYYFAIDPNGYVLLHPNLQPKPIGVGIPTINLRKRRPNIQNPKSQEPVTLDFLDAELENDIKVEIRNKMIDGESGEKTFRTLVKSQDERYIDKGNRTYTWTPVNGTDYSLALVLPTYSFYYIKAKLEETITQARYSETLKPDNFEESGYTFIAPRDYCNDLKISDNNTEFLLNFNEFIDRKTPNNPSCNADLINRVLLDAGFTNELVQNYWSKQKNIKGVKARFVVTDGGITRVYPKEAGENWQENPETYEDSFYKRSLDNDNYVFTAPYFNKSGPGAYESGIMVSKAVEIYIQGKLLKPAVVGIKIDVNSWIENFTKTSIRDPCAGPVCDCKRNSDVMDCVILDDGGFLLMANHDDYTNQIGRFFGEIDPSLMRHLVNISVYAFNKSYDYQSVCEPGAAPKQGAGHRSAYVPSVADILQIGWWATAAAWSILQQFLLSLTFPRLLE
# T1 sequence (P54289 957-1103 partner limits assumed): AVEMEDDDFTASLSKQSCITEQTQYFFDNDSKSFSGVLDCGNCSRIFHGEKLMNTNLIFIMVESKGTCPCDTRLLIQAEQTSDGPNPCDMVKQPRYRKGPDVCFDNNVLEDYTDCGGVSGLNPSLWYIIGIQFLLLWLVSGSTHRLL
# Method: HEK-293T (RRID:CVCL_2737) were obtained from the European Collection of Authenticated Cell Cultures (ECACC 96121229). The identity of HEK-293T has been confirmed by STR profiling and the cells have been eradicated from mycoplasma at ECACC. We routinely tested the cells for the absence of the mycoplasma contamination. Cells were cultivated at 37 °C in DMEM supplemented with GlutaMax, 10% fetal bovine serum and 1% penicillin/streptomycin (Invitrogen, Fisher Scientific, France). Transfections were performed using jet-PEI (Ozyme, France) with a DNA mix containing either the plasmids that code for Cav1.2-GFP, β2a and α2δ (0.8 µg of each) or either the plasmids that code for Cav1.3 (with and without exon 42a), or Cav2.1, or either Cav2.2 combined with β2a and α2δ (0.8 µg of each supplemented with 0.025 µg of a plasmid coding for GFP). For Cav3.1 expression β2a and α2δ subunits were omitted. Plasmids coding for β2a, α2δ and Cav1.3 were created as described previously. Plasmid coding for Cav1.2-GFP was obtained from Dr. Catalucci[60]. After transfection cells were placed at 30 °C for 2–3 days and dissociated with Versene (Invitrogen, Fisher Scientific, France) and plated at a density of ~35 × 10^3 cells per 35 mm Petri dish for electrophysiological recordings, which were performed the following day.
# Macroscopic currents in HEK-293T cells were recorded at room temperature using an Axopatch 200B or Multiclamp 700B patchclamp amplifier (Molecular Devices, Sunnyvale CA). […] The extracellular solution contained (in mM): 135 NaCl, 20 TEACl, 5 BaCl2, 1 MgCl2, and 10 HEPES (pH adjusted to 7.25 with KOH, ~330 mOsm).
# In all experiments of cellular electrophysiology, we employed synthetized analog of Cas, commercially available at Latoxan (ID: L8109). The native peptide was purified from the venom of Dendroaspis polylepis purchased from Latoxan, as previoulsly described. The pure peptide was obtained after gel filtration, cation exchange and C18 reversed phase chromatography.
# [2] = test system: T-type Ca^2+ channel; settings: cited from earlier work
# Description: (§1) Animal venoms constitute an immense reservoir for identification of new toxins and toxin-derived tools for modulating the physiological function of ion channels. In particular, toxins showing three-fingers molecular scaffold class include several cardiotoxic peptides that abound in snake venoms. Three fingers toxin peptides potently block a variety of proteins including nicotinic receptors, acetylcholinesterase, acid-sensitive ion channels (ASIC)[14], as well as cytotoxins that disrupt the lipid membrane. More than 30 years ago, M. Lazdunski ‘s group purified a 60-amino acid three- ...
# [3] = test system: voltage sensitive Na^+ channels; settings: cardiac ventricular cells, NlE115 neuroblastoma cells, RINmSF and HIT insulinomas, chicken dorsal root ganglia; cited from earlier work
# Description: as §1
# [4] = test system: portal vein, thoracic aorta and uterine smooth muscle; settings: cited from earlier work
# Description: as §1
# [5] = test system: N-type Ca^2+ channel; settings: cited from earlier work
# Description: as §1
# [6] = test system: cardiac contractions; settings: cited from earlier work
# Description: as §1
# [7] = test system: skeletal muscle (Cav1.1) L-type Ca^2+ channel; settings: cited from earlier work
# Description: as §1
# [8] = test system: voltage sensitive K^+ channels; settings: cardiac ventricular cells, NlE115 neuroblastoma cells, RINmSF and HIT insulinomas, chicken dorsal root ganglia; cited from earlier work
# Description: as §1
# [9] = test system: Cav2.1 P/Q type; test: Ca2+ current in HEK-293T cells expressing Cav2.1; format: cell-based; settings: Cas 300 nM (n=10/N=3) and 1 µM (n=10/N=3); holding -80 mV, step 0 mV
# Method: HEK-293T (RRID:CVCL_2737) were obtained from the European Collection of Authenticated Cell Cultures (ECACC 96121229). The identity of HEK-293T has been confirmed by STR profiling and the cells have been eradicated from mycoplasma at ECACC. We routinely tested the cells for the absence of the mycoplasma contamination. Cells were cultivated at 37 °C in DMEM supplemented with GlutaMax, 10% fetal bovine serum and 1% penicillin/streptomycin (Invitrogen, Fisher Scientific, France). […]
# Macroscopic currents in HEK-293T cells were recorded at room temperature using an Axopatch 200B or Multiclamp 700B patchclamp amplifier (Molecular Devices, Sunnyvale CA). […]
# In all experiments of cellular electrophysiology, we employed synthetized analog of Cas, commercially available at Latoxan (ID: L8109). […] Its measured molecular mass (7036.26 Da average) was in accordance with the mass calculated from sequence data (7036.22 Da). […]
# n=10/N=3) channels. Peak current density wa s recorded starting f rom a holding potential of -80mV using an activating voltage step at -30mV for Cav3.1, f ro m a holding potential of -90mV using an activating voltage step at +20mV for Cav2.2 and f rom a holding potential of -80mV using an activating voltage step at 0mV for Cav2.1. Exam ples of recorded traces are reported. […]
# [10] = HEK-293T, read-out: inhibition of ICav1.2
sequence,measurement,setting,value
"RICYIHKASLPRATKTCVENTCYKMFIRTQREYISERGCGCPTAMWPYQTECCKGDRCNK (disulfide 3-22, 17-39, 41-52, 53-58 (inferred)) [Cas, calciseptine]",effect on outward-going ICav1.2 at +150 mV,"[1]; Cas 300 nM, n=6/N=3, holding -60 mV",almost no effect
same,L-type Ca2+ current density,"[1]; Cas 300 nM, 0 mV, Ctrl -9.25± 2,32",-3.32± 0.87 pA/pF
same,L-type Ca2+ current density,"[1]; Cas 300 nM, +10 mV, Ctrl -9.90± 1,94",-3.92± 0.94 pA/pF
same,L-type Ca2+ current density,"[1]; Cas 300 nM, +20 mV, Ctrl -8.05± 1.41",-3.08± 0.77 pA/pF
same,L-type Ca2+ current density,"[1]; Cas 300 nM, +30 mV, Ctrl -4.66± 0.82",-1.53± 0.51 pA/pF
same,L-type Ca2+ current density,"[1]; Cas 300 nM, -10 mV, Ctrl -5.72± 1.83",-1.76± 0.46 pA/pF
same,L-type Ca2+ current density,"[1]; Cas 300 nM, -20 mV, Ctrl -1.41± 0.28",-0.70± 0.17 pA/pF
same,inhibition at 0.1 µM,[1]; [10],37%
same,inhibition at 0.3 µM,[1]; [10],70%
same,inhibition at 1 µM,[1]; [10],80%
same,inhibition at 0.3 µM,"[1]; HEK-293T, read-out: inhibition of ICav1.2 (I-V relationship)",~60%
same,V0.5 for activation,"[1]; during Cas application, control −3 ± 2 mV, n = 8, Wilcoxon p = 0.0078",3 ± 2 mV
same,effect on T-type Ca2+ channel,[2],without affecting
same,effect on voltage sensitive Na+ channels,[3],does not affect
same,effect on smooth muscle contraction,[4],abolish all contraction
same,effect on N-type Ca2+ channel,[5],without affecting
same,effect on cardiac contractions,[6],completely eliminate cardiac contractions
same,effect on skeletal muscle (Cav1.1) L-type Ca2+ channel,[7],without affecting
same,effect on voltage sensitive K+ channels,[8],does not affect
same,effect on Cav2.1 current,[9],failed to detect inhibitory effect; also recorded: had no effect
